Laboratory results reported in patent US10125138B2, “Triazolotriazinone derivatives having activity a s herbicides” (Syngenta Participations AG, priority 2015, dated 2018).

Experiments:
Assay type in all cases: in vivo
Details in all cases: 1000 g/h, evaluated after 13 days, five point scale
[1] = system: Amaranthus retoflexus (AMARE); assay: Pre-emergence glasshouse herbicide test, Amaranthus retoflexus
Procedure: (§1) Seeds of a variety of test species are sown in standard soil in pots (Lolium perenne (LOLPE), Solanum nigrum (SOLNI), Amaranthus retoflexus (AMARE), Setaria faberi (SETFA), Echinochloa crus-galli (ECHCG), Ipomoea hederacea (IPOHE)). After cultivation for one day (pre-emergence) or after 8 days cultivation (post-emergence) under controlled conditions in a glasshouse (at 24/16° C., day/night; 14 hours light; 65% humidity), the plants are sprayed with an aqueous spray solution derived from the formulation of the technical active ingredient in acetone/water (50:50) solution containing 0.5% Tween 20 (polyoxyethelyene sorbitan monolaurate, CAS RN 9005-64-5). […] The test plants are then grown in a glasshouse under controlled conditions in a glasshouse (at 24/16° C., day/night; 14 hours light; 65% humidity) and watered twice daily. After 13 days for pre and post-emergence, the test is evaluated for the percentage damage caused to the plant. The biological activities are shown in the following table on a five point scale (5=80-100%; 4=60-79%; 3=40-59%; 2=20-39%; 1=0-19%).

Solanum nigrum (SOLNI) [2] = assay: Pre-emergence glasshouse herbicide test, Solanum nigrum
Procedure: (§2) Seeds of a variety of test species are sown in standard soil in pots (Lolium perenne (LOLPE), Solanum nigrum (SOLNI), Amaranthus retoflexus (AMARE), Setaria faberi (SETFA), Echinochloa crus-galli (ECHCG), Ipomoea hederacea (IPOHE)). After cultivation for one day (pre-emergence) or after 8 days cultivation (post-emergence) under controlled conditions in a glasshouse (at 24/16° C., day/night; 14 hours light; 65% humidity), the plants are sprayed with an aqueous spray solution derived from the formulation of the technical active ingredient in acetone/water (50:50) solution containing 0.5% Tween 20 (polyoxyethelyene sorbitan monolaurate, CAS RN 9005-64-5). Compounds are applied at 1000 g/h. The test plants are then grown in a glasshouse under controlled conditions in a glasshouse (at 24/16° C., day/night; 14 hours light; 65% humidity) and watered twice daily. After 13 days for pre and post-emergence, the test is evaluated for the percentage damage caused to the plant. The biological activities are shown in the following table on a five point scale (5=80-100%; 4=60-79%; 3=40-59%; 2=20-39%; 1=0-19%).

[3] = system: Amaranthus retoflexus (AMARE); assay: Post-emergence glasshouse herbicide test, Amaranthus retoflexus
Procedure: as §1

Setaria faberi (SETFA) [4] = assay: Pre-emergence glasshouse herbicide test, Setaria faberi
Procedure: as §1

[5] = system: Echinochloa crus-galli (ECHCG); assay: Pre-emergence glasshouse herbicide test, Echinochloa crus-galli
Procedure: as §1

Solanum nigrum (SOLNI) [6] = assay: Post-emergence glasshouse herbicide test, Solanum nigrum
Procedure: as §2

[7] = system: Ipomoea hederacea (IPOHE); assay: Pre-emergence glasshouse herbicide test, Ipomoea hederacea
Procedure: as §1

Lolium perenne (LOLPE) [8] = assay: Pre-emergence glasshouse herbicide test, Lolium perenne
Procedure: as §1

Setaria faberi (SETFA) [9] = assay: Post-emergence glasshouse herbicide test, Setaria faberi
Procedure: as §1

[10] = system: Echinochloa crus-galli (ECHCG); assay: Post-emergence glasshouse herbicide test, Echinochloa crus-galli
Procedure: as §1

Lolium perenne (LOLPE) [11] = assay: Post-emergence glasshouse herbicide test, Lolium perenne
Procedure: as §1

[12] = system: Ipomoea hederacea (IPOHE); assay: Post-emergence glasshouse herbicide test, Ipomoea hederacea
Procedure: as §1

Structure (SMILES) | percentage damage caused to the plant, PRE Application AMARE [1] | percentage damage caused to the plant, PRE Application SOLNI (Solanum nigrum (SOLNI) [2]) | percentage damage caused to the plant, POST Application AMARE [3] | percentage damage caused to the plant, PRE Application SETFA (Setaria faberi (SETFA) [4]) | percentage damage caused to the plant, PRE Application ECHCG [5] | percentage damage caused to the plant, POST Application SOLNI (Solanum nigrum (SOLNI) [6]) | percentage damage caused to the plant, PRE Application IPOHE [7] | percentage damage caused to the plant, PRE Application LOLPE (Lolium perenne (LOLPE) [8]) | percentage damage caused to the plant, POST Application SETFA (Setaria faberi (SETFA) [9]) | percentage damage caused to the plant, POST Application ECHCG [10] | percentage damage caused to the plant, POST Application LOLPE (Lolium perenne (LOLPE) [11]) | percentage damage caused to the plant, POST Application IPOHE [12]
CCn1nnnc1NC(=O)c1nn2cnn(-c3ccc(OC)cc3)c2nc1=O [Compound 1.034] | 5 (5=80-100%) | 5 (5=80-100%) | 5 (5=80-100%) | 5 (5=80-100%) | 5 (5=80-100%) | 5 (5=80-100%) | 3 (3=40-59%) | 4 (4=60-79%) | 5 (5=80-100%) | 5 (5=80-100%) | 4 (4=60-79%) | 5 (5=80-100%)
CCCn1nnnc1NC(=O)c1nn2cnn(-c3ccc(OC)cc3)c2nc1=O [Compound 1.035] | 5 (5=80-100%) | 5 (5=80-100%) | 4 (4=60-79%) | 5 (5=80-100%) | 5 (5=80-100%) | 5 (5=80-100%) | 5 (5=80-100%) | 5 (5=80-100%) | 4 (4=60-79%) | 5 (5=80-100%) | 5 (5=80-100%) | 5 (5=80-100%)
CCCn1nnnc1NC(=O)c1nn2cnn(-c3cccc(OC)c3)c2nc1=O [Compound 1.036] | 5 (5=80-100%) | 5 (5=80-100%) | 5 (5=80-100%) | 5 (5=80-100%) | 5 (5=80-100%) | 5 (5=80-100%) | 4 (4=60-79%) | 5 (5=80-100%) | 5 (5=80-100%) | 4 (4=60-79%) | 5 (5=80-100%) | 5 (5=80-100%)
CCn1nnnc1NC(=O)c1nn2cnn(-c3ccc(F)cc3)c2nc1=O [Compound 1.037] | 5 (5=80-100%) | 5 (5=80-100%) | 5 (5=80-100%) | 5 (5=80-100%) | 5 (5=80-100%) | 5 (5=80-100%) | 5 (5=80-100%) | 4 (4=60-79%) | 5 (5=80-100%) | 5 (5=80-100%) | 4 (4=60-79%) | 4 (4=60-79%)
CCCn1nnnc1NC(=O)c1nn2cnn(-c3ccc(F)cc3)c2nc1=O [Compound 1.038] | 5 (5=80-100%) | 5 (5=80-100%) | 5 (5=80-100%) | 5 (5=80-100%) | 5 (5=80-100%) | 5 (5=80-100%) | 5 (5=80-100%) | 4 (4=60-79%) | 5 (5=80-100%) | 5 (5=80-100%) | 5 (5=80-100%) | 5 (5=80-100%)
CCCCn1nnnc1NC(=O)c1nn2cnn(-c3ccc(F)cc3)c2nc1=O [Compound 1.039] | 5 (5=80-100%) | 5 (5=80-100%) | 5 (5=80-100%) | 5 (5=80-100%) | 5 (5=80-100%) | 5 (5=80-100%) | 4 (4=60-79%) | 5 (5=80-100%) | 5 (5=80-100%) | 5 (5=80-100%) | 5 (5=80-100%) | 5 (5=80-100%)
CCCCn1nnnc1NC(=O)c1nn2cnn(-c3ccc(OC)cc3)c2nc1=O [Compound 1.040] | 3 (3=40-59%) | 5 (5=80-100%) | 4 (4=60-79%) | 5 (5=80-100%) | 5 (5=80-100%) | 5 (5=80-100%) | 5 (5=80-100%) | 5 (5=80-100%) | 4 (4=60-79%) | 3 (3=40-59%) | 5 (5=80-100%) | 5 (5=80-100%)
CCn1nnnc1NC(=O)c1nn2cnn(-c3ccc(C(F)(F)F)cc3)c2nc1=O [Compound 1.042] | 5 (5=80-100%) | 5 (5=80-100%) | 4 (4=60-79%) | 5 (5=80-100%) | 5 (5=80-100%) | 5 (5=80-100%) | 4 (4=60-79%) | 4 (4=60-79%) | 4 (4=60-79%) | 3 (3=40-59%) | 3 (3=40-59%) | 4 (4=60-79%)
CCCn1nnnc1NC(=O)c1nn2cnn(-c3ccc(C(F)(F)F)cc3)c2nc1=O [Compound 1.043] | 4 (4=60-79%) | 5 (5=80-100%) | 5 (5=80-100%) | 5 (5=80-100%) | 2 (2=20-39%) | 5 (5=80-100%) | 3 (3=40-59%) | 3 (3=40-59%) | 4 (4=60-79%) | 1 (1=0-19%) | 3 (3=40-59%) | 4 (4=60-79%)
CCCCn1nnnc1NC(=O)c1nn2cnn(-c3ccc(C(F)(F)F)cc3)c2nc1=O [Compound 1.044] | 3 (3=40-59%) | 5 (5=80-100%) | 4 (4=60-79%) | 3 (3=40-59%) | 2 (2=20-39%) | 5 (5=80-100%) | 3 (3=40-59%) | 3 (3=40-59%) | 3 (3=40-59%) | 1 (1=0-19%) | 3 (3=40-59%) | 5 (5=80-100%)
